Experiments:
[1] = Plasma concentration in Sprague-Dawley rat at 10 mg/kg, po after 0.25 hrs; type: ADME, organism-based
[2] = Plasma concentration in Sprague-Dawley rat at 10 mg/kg, po after 24 hrs; type: ADME, organism-based; conditions: in vivo, BLD = below limit of detection
[3] = AUClast in Sprague-Dawley rat at 1 mg/kg, iv; type: ADME, organism-based; design: dose 1 mg/kg, time 0 - last, route intravenous; conditions: in vivo
[4] = Plasma concentration in Sprague-Dawley rat at 1 mg/kg, iv after 1 hrs; type: ADME, organism-based
[5] = Terminal half-life in Sprague-Dawley rat at 1 mg/kg, iv; type: ADME, organism-based; conditions: in vivo, read-out: beta t1/2 (converted)
[6] = MRT (infinity) in Sprague-Dawley rat at 1 mg/kg, iv; type: ADME, organism-based; conditions: in vivo
Homo sapiens [7] = organism: Homo sapiens; test: Selectivity index, ratio of IC50 for PI3Kalpha (unknown origin) to IC50 for PI3Kdelta (unknown origin)
[8] = Oral bioavailability in Sprague-Dawley rat at 10 mg/kg; type: ADME, organism-based; conditions: in vivo
[9] = Volume of distribution at steady state in Sprague-Dawley rat at 1 mg/kg, iv; type: ADME, organism-based; conditions: in vivo, read-out: Vdss
Homo sapiens [10] = organism: Homo sapiens; test: Selectivity index, ratio of IC50 for PI3Kgamma (unknown origin) to IC50 for PI3Kdelta (unknown origin)
[11] = AUClast in Sprague-Dawley rat at 10 mg/kg, po; type: ADME, organism-based; design: dose 10 mg/kg, time 0 - last, route oral; conditions: in vivo
[12] = Plasma concentration in Sprague-Dawley rat at 1 mg/kg, iv after 0.083 hrs; type: ADME, organism-based
[13] = molecular target: T1, Phosphatidylinositol 4,5-bisphosphate 3-kinase catalytic subunit delta isoform (Homo sapiens, UniProt O00329); test: Inhibition of PI3Kdelta (unknown origin) using Biotin-S11S12 as substrate after 120 mins in presence of ATP by ADPGlo luminescence assay
T1 sequence (O00329 whole entry): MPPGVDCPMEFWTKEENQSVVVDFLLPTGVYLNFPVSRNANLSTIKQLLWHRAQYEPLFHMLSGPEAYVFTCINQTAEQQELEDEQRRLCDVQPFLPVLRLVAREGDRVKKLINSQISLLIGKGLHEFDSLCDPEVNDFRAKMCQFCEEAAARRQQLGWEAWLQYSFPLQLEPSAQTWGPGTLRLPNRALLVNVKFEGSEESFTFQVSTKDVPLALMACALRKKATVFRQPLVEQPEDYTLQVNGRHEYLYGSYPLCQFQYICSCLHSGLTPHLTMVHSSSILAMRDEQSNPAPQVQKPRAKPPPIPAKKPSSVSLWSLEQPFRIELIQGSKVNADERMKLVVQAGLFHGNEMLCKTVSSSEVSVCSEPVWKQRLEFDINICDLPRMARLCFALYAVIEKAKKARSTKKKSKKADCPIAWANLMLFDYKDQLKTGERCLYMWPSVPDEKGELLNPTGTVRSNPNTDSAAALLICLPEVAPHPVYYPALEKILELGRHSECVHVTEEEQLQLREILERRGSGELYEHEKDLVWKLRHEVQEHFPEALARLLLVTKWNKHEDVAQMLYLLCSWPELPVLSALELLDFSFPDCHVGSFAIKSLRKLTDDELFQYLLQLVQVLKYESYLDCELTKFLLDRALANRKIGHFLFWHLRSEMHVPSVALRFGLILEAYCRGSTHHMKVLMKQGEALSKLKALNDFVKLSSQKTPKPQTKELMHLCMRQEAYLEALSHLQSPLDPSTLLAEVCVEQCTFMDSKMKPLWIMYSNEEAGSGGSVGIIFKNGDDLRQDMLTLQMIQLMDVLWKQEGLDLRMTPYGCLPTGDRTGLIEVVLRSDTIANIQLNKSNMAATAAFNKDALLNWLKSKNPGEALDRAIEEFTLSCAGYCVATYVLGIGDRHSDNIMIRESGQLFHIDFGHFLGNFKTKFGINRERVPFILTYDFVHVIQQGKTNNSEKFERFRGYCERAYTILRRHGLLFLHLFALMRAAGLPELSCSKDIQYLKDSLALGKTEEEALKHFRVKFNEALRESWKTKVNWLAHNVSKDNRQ

[14] = Plasma concentration in Sprague-Dawley rat at 10 mg/kg, po after 2 hrs; type: ADME, organism-based
[15] = Plasma concentration in Sprague-Dawley rat at 1 mg/kg, iv after 4 hrs; type: ADME, organism-based
[16] = molecular target: Phosphatidylinositol 4,5-bisphosphate 3-kinase catalytic subunit gamma isoform (Homo sapiens, UniProt P48736); test: Inhibition of PI3Kgamma (unknown origin) using Biotin-S11S12 as substrate after 60 mins in presence of ATP by ADPGlo luminescence assay
[17] = Plasma concentration in Sprague-Dawley rat at 10 mg/kg, po after 4 hrs; type: ADME, organism-based
[18] = Plasma concentration in Sprague-Dawley rat at 1 mg/kg, iv after 2 hrs; type: ADME, organism-based
Homo sapiens [19] = organism: Homo sapiens; test: Selectivity index, ratio of IC50 for PI3Kbeta (unknown origin) to IC50 for PI3Kdelta (unknown origin)
[20] = Plasma concentration in Sprague-Dawley rat at 10 mg/kg, po after 1 hrs; type: ADME, organism-based
[21] = Terminal half-life in Sprague-Dawley rat at 10 mg/kg, po; type: ADME, organism-based; conditions: in vivo, read-out: beta t1/2 (converted)
[22] = molecular target: Phosphatidylinositol 4,5-bisphosphate 3-kinase catalytic subunit beta isoform (Homo sapiens, UniProt P42338); test: Inhibition of PI3Kbeta (unknown origin) using Biotin-S11S12 as substrate after 60 mins in presence of ATP by ADPGlo luminescence assay
[23] = molecular target: Phosphatidylinositol 4,5-bisphosphate 3-kinase catalytic subunit alpha isoform (Homo sapiens, UniProt P42336); test: Inhibition of PI3Kalpha (unknown origin) using Biotin-S11S12 as substrate after 60 mins in presence of ATP by Kinase Glo luminescence assay
[24] = Plasma concentration in Sprague-Dawley rat at 1 mg/kg, iv after 8 hrs; type: ADME, organism-based
[25] = Plasma concentration in Sprague-Dawley rat at 1 mg/kg, iv after 0.25 hrs; type: ADME, organism-based
[26] = Plasma concentration in Sprague-Dawley rat at 1 mg/kg, iv after 0.5 hrs; type: ADME, organism-based
[27] = Plasma concentration in Sprague-Dawley rat at 1 mg/kg, iv after 24 hrs; type: ADME, organism-based; conditions: in vivo, BLD = below limit of detection
[28] = Clearance in Sprague-Dawley rat at 1 mg/kg, iv; type: ADME, organism-based; conditions: in vivo
[29] = Plasma concentration in Sprague-Dawley rat at 10 mg/kg, po after 0.5 hrs; type: ADME, organism-based
[30] = Plasma concentration in Sprague-Dawley rat at 10 mg/kg, po after 8 hrs; type: ADME, organism-based
SU-DHL-6 = test: Growth inhibition of human SU-DHL6 cells by CellTiter-Glo assay; type: functional
[31] = Cmax in Sprague-Dawley rat at 10 mg/kg, po; type: ADME, organism-based; design: dose 10 mg/kg, route oral; conditions: in vivo
[32] = Tmax in Sprague-Dawley rat at 10 mg/kg, po; type: ADME, organism-based; conditions: in vivo
[33] = molecular target: T2, Phosphatidylinositol 4,5-bisphosphate 3-kinase catalytic subunit delta isoform (Homo sapiens) (UniProt O00329); test: Inhibition of PI3Kdelta (unknown origin) at 1 uM using Biotin-S11S12 as substrate after 120 mins in presence of ATP by ADPGlo luminescence assay
T2 sequence (whole entry): T1 sequence (O00329 whole entry)

[34] = Plasma concentration in Sprague-Dawley rat at 10 mg/kg, po after 0.083 hrs; type: ADME, organism-based
[35] = AUC (0 to infinity) in Sprague-Dawley rat at 10 mg/kg, po; type: ADME, organism-based; design: dose 10 mg/kg, time infinity, route oral; conditions: in vivo
[36] = AUC (0 to infinity) in Sprague-Dawley rat at 1 mg/kg, iv; type: ADME, organism-based; design: dose 1 mg/kg, time infinity, route intravenous; conditions: in vivo

Phosphatidylinositol 4,5-bisphosphate 3-kinase catalytic subunit beta isoform, sequence (P42338 whole entry, canonical isoform): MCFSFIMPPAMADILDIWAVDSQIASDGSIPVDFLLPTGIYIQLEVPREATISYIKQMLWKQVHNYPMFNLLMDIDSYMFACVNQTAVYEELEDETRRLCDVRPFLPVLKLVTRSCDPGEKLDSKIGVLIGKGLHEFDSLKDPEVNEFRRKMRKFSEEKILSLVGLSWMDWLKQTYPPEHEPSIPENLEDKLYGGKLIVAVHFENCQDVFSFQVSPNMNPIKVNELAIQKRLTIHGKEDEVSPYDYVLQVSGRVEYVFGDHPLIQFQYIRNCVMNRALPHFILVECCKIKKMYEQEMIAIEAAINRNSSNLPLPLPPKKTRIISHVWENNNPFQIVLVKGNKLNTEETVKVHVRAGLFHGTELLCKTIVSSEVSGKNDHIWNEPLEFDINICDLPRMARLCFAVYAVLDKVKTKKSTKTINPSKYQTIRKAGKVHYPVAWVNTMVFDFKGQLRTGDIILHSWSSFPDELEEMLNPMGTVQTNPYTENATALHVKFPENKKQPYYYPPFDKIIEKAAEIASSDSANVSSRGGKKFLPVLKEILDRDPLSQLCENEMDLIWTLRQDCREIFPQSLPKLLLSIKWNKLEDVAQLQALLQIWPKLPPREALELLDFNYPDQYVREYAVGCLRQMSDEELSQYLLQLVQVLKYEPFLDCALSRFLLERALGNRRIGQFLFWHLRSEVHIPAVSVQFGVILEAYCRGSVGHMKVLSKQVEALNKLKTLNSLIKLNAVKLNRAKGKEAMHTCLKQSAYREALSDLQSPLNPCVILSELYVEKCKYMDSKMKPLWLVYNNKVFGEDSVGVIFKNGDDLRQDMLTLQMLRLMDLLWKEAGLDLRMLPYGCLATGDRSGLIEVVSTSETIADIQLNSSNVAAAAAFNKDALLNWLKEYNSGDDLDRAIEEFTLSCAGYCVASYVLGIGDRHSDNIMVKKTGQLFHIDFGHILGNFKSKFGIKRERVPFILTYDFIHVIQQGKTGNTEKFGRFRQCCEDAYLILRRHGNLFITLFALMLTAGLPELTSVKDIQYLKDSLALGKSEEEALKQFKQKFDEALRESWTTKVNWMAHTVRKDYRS
Phosphatidylinositol 4,5-bisphosphate 3-kinase catalytic subunit gamma isoform, sequence (P48736 whole entry, canonical isoform): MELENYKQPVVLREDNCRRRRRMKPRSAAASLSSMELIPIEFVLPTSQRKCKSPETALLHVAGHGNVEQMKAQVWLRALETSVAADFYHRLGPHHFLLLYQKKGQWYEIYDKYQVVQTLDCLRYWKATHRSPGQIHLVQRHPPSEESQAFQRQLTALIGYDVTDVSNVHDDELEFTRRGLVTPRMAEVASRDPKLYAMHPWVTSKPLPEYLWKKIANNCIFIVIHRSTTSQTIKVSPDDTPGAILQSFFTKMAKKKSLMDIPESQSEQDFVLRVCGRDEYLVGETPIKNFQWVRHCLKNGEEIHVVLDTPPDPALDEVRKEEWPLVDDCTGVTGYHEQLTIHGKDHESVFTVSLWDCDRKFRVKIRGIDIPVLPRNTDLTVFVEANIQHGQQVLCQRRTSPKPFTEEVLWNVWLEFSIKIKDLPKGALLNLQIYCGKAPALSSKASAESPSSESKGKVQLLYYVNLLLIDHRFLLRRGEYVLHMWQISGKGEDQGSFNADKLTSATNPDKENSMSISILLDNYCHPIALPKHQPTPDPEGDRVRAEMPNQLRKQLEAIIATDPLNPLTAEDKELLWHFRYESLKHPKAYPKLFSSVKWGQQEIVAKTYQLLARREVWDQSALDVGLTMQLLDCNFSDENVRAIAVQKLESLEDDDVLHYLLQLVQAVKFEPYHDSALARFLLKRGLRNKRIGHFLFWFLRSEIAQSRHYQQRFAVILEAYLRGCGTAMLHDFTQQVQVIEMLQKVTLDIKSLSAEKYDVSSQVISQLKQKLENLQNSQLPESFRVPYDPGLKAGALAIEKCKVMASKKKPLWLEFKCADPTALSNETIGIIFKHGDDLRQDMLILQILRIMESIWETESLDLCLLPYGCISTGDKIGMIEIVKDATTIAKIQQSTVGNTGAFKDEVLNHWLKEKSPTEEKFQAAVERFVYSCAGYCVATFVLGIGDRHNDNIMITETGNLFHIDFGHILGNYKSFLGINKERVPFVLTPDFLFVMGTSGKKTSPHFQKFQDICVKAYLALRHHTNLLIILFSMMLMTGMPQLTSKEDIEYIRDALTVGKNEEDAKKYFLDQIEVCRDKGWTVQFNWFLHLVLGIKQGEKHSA
Phosphatidylinositol 4,5-bisphosphate 3-kinase catalytic subunit alpha isoform, sequence (P42336 whole entry, canonical isoform): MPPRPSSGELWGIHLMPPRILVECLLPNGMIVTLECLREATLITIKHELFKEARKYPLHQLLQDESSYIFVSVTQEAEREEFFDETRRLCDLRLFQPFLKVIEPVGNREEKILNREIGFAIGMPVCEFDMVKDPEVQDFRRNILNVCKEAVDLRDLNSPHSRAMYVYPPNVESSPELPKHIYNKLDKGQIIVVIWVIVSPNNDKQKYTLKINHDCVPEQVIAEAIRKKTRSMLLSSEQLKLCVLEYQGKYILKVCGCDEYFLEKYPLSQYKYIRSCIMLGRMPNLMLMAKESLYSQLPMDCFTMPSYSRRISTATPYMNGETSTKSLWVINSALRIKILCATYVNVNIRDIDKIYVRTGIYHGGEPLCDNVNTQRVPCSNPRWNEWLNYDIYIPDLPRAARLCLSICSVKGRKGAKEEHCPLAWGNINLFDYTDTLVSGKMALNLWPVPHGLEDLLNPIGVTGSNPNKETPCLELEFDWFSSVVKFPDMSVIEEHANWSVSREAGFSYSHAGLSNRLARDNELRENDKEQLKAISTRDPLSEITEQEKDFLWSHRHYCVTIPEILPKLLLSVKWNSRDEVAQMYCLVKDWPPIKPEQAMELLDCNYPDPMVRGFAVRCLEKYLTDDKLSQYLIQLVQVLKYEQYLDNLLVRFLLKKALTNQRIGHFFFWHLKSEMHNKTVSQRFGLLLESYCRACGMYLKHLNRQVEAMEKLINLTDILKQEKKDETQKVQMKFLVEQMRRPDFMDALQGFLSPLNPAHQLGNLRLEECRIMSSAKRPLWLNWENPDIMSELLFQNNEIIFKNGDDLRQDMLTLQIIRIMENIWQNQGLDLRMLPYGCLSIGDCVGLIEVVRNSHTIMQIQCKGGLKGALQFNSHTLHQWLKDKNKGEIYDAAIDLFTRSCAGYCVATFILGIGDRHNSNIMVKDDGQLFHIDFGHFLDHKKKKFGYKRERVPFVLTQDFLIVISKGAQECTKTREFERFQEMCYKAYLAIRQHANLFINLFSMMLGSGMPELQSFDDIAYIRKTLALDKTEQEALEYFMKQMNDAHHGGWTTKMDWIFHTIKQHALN

COc1ccc(-c2nn(Cc3nc4cccc(F)c4c(=O)n3-c3c(C)cccc3C)c3ncnc(N)c23)cc1OC
concentration at 0.25 h [1]: 343 ng/mL | Cp [2]: Bld | AUC(0-t) [3]: 1010 ng·h/mL | concentration at 1 h [4]: 64.3 ng/mL | half-life [5]: 37.2 min | MRT inf [6]: 30.6 min | Ratio IC50 (Homo sapiens [7]): 1410 | bioavailability [8]: 34.9% | Vd [9]: 0.45 L/kg | Ratio IC50 (Homo sapiens [10]): 7 | AUC(0-t) [11]: 3530 ng·h/mL | concentration at 0.083 h [12]: 1020 ng/mL | IC50 [13]: 8.4 nM | concentration at 2 h [14]: 192 ng/mL | concentration at 4 h [15]: 2.58 ng/mL | IC50 [16]: 62 nM | concentration at 4 h [17]: 9.86 ng/mL | concentration at 2 h [18]: 13.1 ng/mL | Ratio IC50 (Homo sapiens [19]): 828 | concentration at 1 h [20]: 318 ng/mL | half-life [21]: 101 min | IC50 [22]: 6960 nM | IC50 [23]: 11800 nM | concentration at 8 h [24]: 1.83 ng/mL | concentration at 0.25 h [25]: 541 ng/mL | concentration at 0.5 h [26]: 250 ng/mL | Cp [27]: Bld | clearance [28]: 16.5 mL/min/kg | concentration at 0.5 h [29]: 379 ng/mL | concentration at 8 h [30]: 6.5 ng/mL | GI50 (SU-DHL-6): 222 nM | Cmax [31]: 387 ng/mL | Tmax [32]: 50 min | inhibition [33]: 96.8% | concentration at 0.083 h [34]: 198 ng/mL | AUC(0-inf) [35]: 3550 ng·h/mL | AUC(0-inf) [36]: 1020 ng·h/mL

COc1ccc(-c2nn(Cc3nc4cccc(F)c4c(=O)n3-c3ccccc3C)c3ncnc(N)c23)cc1OC
IC50 [13]: 26 nM | inhibition [33]: 90.8%

Cc1ccccc1-n1c(Cn2nc(-c3ccc4c(c3)OCO4)c3c(N)ncnc32)nc2cccc(F)c2c1=O
IC50 [13]: 106 nM | inhibition [33]: 89.6%

CC[C@H](Nc1ncnc2[nH]cnc12)c1nc2cccc(F)c2c(=O)n1-c1ccccc1 [IDELALISIB]
GI50 (SU-DHL-6): 42 nM | inhibition [33]: 91.9%

Cc1ccccc1-n1c(Cn2nc(-c3cnc4ccccc4c3)c3c(N)ncnc32)nc2cccc(F)c2c1=O
IC50 [13]: 86 nM | inhibition [33]: 90%

Cc1cccc(C)c1-n1c(Cn2nc(-c3ccc4cc(O)ccc4c3)c3c(N)ncnc32)nc2cccc(F)c2c1=O
IC50 [13]: 416 nM | inhibition [33]: 77.3%

COc1ccc(-c2nn(Cc3nc4cccc(F)c4c(=O)n3-c3ccccc3C)c3ncnc(N)c23)cn1
IC50 [13]: 31 nM | inhibition [33]: 92.7%

Cc1cccc(C)c1-n1c(Cn2nc(-c3cnc4ccccc4c3)c3c(N)ncnc32)nc2cccc(F)c2c1=O
IC50 [13]: 81 nM | inhibition [33]: 92%

Cc1ccccc1-n1c(Cn2nc(-c3cccc(OC(F)(F)F)c3)c3c(N)ncnc32)nc2cccc(F)c2c1=O
inhibition [33]: 70.8%

Cc1ccccc1-n1c(Cn2nc(-c3ccc4cc(O)ccc4c3)c3c(N)ncnc32)nc2cccc(F)c2c1=O
IC50 [13]: 227 nM | inhibition [33]: 73%

Cc1cccc(C)c1-n1c(Cn2nc(-c3ccc4c(c3)OCO4)c3c(N)ncnc32)nc2cccc(F)c2c1=O
IC50 [13]: 84 nM | inhibition [33]: 89.1%

Cc1cccc(C)c1-n1c(Cn2nc(-c3ccc4[nH]ccc4c3)c3c(N)ncnc32)nc2cccc(F)c2c1=O
concentration at 0.25 h [1]: 343 ng/mL | Cp [2]: Bld | AUC(0-t) [3]: 471 ng·h/mL | concentration at 1 h [4]: 64.3 ng/mL | half-life [5]: 50.4 min | MRT inf [6]: 30.6 min | Ratio IC50 (Homo sapiens [7]): 3640 | bioavailability [8]: 17.3% | Vd [9]: 1.11 L/kg | Ratio IC50 (Homo sapiens [10]): 42 | AUC(0-t) [11]: 808 ng·h/mL | concentration at 0.083 h [12]: 1020 ng/mL | IC50 [13]: 8.6 nM | concentration at 2 h [14]: 192 ng/mL | concentration at 4 h [15]: 2.58 ng/mL | IC50 [16]: 363 nM | concentration at 4 h [17]: 9.86 ng/mL | concentration at 2 h [18]: 13.1 ng/mL | Ratio IC50 (Homo sapiens [19]): 392 | concentration at 1 h [20]: 318 ng/mL | half-life [21]: 78.6 min | IC50 [22]: 3370 nM | IC50 [23]: 31300 nM | concentration at 8 h [24]: 1.83 ng/mL | concentration at 0.25 h [25]: 541 ng/mL | concentration at 0.5 h [26]: 250 ng/mL | Cp [27]: Bld | clearance [28]: 36 mL/min/kg | concentration at 0.5 h [29]: 379 ng/mL | concentration at 8 h [30]: 6.5 ng/mL | GI50 (SU-DHL-6): 149 nM | Cmax [31]: 387 ng/mL | Tmax [32]: 50 min | inhibition [33]: 96.8% | concentration at 0.083 h [34]: 198 ng/mL | AUC(0-inf) [35]: 820 ng·h/mL | AUC(0-inf) [36]: 473 ng·h/mL

Cc1ccccc1-n1c(Cn2nc(-c3ccc4[nH]ccc4c3)c3c(N)ncnc32)nc2cccc(F)c2c1=O
IC50 [13]: 16 nM | inhibition [33]: 94.7%

COc1ccc(-c2nn(Cc3nc4cccc(F)c4c(=O)n3-c3c(C)cccc3C)c3ncnc(N)c23)cn1
IC50 [13]: 41 nM | inhibition [33]: 94.7%

Cc1cccc(C)c1-n1c(Cn2nc(-c3cccc(OC(F)(F)F)c3)c3c(N)ncnc32)nc2cccc(F)c2c1=O
inhibition [33]: 29.6%

— ChEMBL document CHEMBL4229370, “Discovery of novel quinazolinone derivatives as high potent and selective PI3Kδ and PI3Kδ/γ inhibitors” (Eur J Med Chem, 2018)
